Laboratory results: ChEMBL document CHEMBL4507286 (2021)

Tests used:
[1] = tested on: Tyrosine-protein kinase ABL1 (Homo sapiens), P00519 [H396P]
[2] = tested on: Tyrosine-protein kinase ABL1 (Homo sapiens), P00519 [M351T]
[3] = tested on: Tyrosine-protein kinase ABL1 (Homo sapiens), P00519 [Q252H]
[4] = tested on: Tyrosine-protein kinase ABL1 (Homo sapiens), P00519 [T315I]
[5] = biological target: ALK tyrosine kinase receptor (Homo sapiens) (UniProt Q9UM73)
[6] = biological target: Calcium/calmodulin-dependent protein kinase type 1D (Homo sapiens) (UniProt Q8IU85)
[7] = biological target: Calcium/calmodulin-dependent protein kinase kinase 1 (Homo sapiens) (UniProt Q8N5S9)
[8] = biological target: Calcium/calmodulin-dependent protein kinase kinase 2 (Homo sapiens) (UniProt Q96RR4)
[9] = biological target: Serine/threonine-protein kinase Chk2 (Homo sapiens) (UniProt O96017)
Chain of Serine/threonine-protein kinase Chk2 (Homo sapiens) (O96017 whole entry): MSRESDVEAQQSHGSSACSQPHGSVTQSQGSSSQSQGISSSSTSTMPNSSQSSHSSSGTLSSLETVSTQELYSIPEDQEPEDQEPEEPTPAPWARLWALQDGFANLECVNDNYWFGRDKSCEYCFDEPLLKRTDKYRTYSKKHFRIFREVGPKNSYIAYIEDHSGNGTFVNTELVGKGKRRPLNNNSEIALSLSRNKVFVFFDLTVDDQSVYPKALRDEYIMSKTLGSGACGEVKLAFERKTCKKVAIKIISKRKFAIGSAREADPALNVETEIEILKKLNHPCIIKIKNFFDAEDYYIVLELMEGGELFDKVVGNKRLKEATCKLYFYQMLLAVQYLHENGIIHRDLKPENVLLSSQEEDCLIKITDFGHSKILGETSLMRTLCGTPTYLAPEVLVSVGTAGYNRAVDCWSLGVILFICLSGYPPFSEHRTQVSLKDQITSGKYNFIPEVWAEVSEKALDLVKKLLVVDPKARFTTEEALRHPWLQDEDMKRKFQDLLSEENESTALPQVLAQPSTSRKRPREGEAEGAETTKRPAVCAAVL

[10] = biological target: Serine/threonine-protein kinase DCLK2 (Homo sapiens) (UniProt Q8N568)
[11] = biological target: Ephrin type-A receptor 8 (Homo sapiens) (UniProt P29322)
Chain of Ephrin type-A receptor 8 (Homo sapiens) (P29322 whole entry): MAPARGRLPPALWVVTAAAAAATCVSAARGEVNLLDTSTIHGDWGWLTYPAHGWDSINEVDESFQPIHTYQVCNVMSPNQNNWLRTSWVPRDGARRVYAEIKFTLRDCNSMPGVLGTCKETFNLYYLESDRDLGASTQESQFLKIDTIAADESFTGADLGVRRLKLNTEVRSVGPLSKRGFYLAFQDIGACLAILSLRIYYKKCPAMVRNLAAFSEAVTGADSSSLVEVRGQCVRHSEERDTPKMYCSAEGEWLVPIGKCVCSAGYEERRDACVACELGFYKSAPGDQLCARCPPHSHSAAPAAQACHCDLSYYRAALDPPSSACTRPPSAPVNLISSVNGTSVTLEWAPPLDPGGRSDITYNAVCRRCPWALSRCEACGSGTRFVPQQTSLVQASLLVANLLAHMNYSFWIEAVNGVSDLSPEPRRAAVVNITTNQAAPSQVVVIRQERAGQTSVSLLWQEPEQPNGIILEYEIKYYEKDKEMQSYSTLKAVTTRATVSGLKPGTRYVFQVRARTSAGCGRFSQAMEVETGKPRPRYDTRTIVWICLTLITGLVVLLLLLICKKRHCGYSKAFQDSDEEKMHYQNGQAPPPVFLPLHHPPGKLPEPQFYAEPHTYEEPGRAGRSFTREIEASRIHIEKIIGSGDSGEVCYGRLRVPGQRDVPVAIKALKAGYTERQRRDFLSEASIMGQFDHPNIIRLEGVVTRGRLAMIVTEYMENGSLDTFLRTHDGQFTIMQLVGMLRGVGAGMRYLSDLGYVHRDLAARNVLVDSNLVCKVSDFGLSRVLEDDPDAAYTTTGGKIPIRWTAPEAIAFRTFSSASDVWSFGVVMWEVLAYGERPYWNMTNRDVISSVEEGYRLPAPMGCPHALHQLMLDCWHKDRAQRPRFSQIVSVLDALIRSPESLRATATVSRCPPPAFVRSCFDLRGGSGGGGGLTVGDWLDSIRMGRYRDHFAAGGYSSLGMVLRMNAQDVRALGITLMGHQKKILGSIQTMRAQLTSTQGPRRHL

[12] = biological target: Ephrin type-B receptor 1 (Homo sapiens) (UniProt P54762)
[13] = biological target: Ephrin type-B receptor 2 (Homo sapiens) (UniProt P29323)
[14] = biological target: Ephrin type-B receptor 4 (Homo sapiens) (UniProt P54760)
Chain of Ephrin type-B receptor 4 (Homo sapiens) (P54760 whole entry): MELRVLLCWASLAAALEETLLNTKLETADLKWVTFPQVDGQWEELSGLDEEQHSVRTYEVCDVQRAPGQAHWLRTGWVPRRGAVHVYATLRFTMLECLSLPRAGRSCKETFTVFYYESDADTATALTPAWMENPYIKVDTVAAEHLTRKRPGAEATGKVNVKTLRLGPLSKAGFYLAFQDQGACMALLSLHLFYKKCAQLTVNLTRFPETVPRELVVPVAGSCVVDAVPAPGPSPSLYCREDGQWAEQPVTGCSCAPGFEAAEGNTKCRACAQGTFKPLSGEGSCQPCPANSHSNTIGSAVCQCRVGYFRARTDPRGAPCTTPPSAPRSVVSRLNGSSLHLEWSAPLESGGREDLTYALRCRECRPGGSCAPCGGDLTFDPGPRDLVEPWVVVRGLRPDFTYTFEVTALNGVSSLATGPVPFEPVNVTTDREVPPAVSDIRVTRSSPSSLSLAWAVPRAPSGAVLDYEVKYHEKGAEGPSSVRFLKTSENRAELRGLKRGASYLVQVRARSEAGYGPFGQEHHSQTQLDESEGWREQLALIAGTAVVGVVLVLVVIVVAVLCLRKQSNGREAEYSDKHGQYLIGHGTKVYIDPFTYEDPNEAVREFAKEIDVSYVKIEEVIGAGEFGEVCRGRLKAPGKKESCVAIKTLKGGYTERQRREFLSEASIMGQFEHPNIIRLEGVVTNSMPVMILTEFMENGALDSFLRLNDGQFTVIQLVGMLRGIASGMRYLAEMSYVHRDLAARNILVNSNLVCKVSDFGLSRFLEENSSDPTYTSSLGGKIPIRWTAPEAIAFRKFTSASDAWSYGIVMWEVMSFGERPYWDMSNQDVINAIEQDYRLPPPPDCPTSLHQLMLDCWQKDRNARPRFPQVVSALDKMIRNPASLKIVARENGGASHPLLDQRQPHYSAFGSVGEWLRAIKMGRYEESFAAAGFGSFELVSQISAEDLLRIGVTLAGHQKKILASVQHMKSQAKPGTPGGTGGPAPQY

[15] = biological target: Mitogen-activated protein kinase 4 (Homo sapiens) (UniProt P31152)
[16] = biological target: Serine/threonine-protein kinase/endoribonuclease IRE1 (Homo sapiens) (UniProt O75460)
[17] = tested on: Receptor-type tyrosine-protein kinase FLT3 (Homo sapiens), P36888 [UNDEFINED MUTATION]
Chain of Receptor-type tyrosine-protein kinase FLT3 (Homo sapiens), P36888 [UNDEFINED MUTATION] (P36888 whole entry, looked up, change not shown): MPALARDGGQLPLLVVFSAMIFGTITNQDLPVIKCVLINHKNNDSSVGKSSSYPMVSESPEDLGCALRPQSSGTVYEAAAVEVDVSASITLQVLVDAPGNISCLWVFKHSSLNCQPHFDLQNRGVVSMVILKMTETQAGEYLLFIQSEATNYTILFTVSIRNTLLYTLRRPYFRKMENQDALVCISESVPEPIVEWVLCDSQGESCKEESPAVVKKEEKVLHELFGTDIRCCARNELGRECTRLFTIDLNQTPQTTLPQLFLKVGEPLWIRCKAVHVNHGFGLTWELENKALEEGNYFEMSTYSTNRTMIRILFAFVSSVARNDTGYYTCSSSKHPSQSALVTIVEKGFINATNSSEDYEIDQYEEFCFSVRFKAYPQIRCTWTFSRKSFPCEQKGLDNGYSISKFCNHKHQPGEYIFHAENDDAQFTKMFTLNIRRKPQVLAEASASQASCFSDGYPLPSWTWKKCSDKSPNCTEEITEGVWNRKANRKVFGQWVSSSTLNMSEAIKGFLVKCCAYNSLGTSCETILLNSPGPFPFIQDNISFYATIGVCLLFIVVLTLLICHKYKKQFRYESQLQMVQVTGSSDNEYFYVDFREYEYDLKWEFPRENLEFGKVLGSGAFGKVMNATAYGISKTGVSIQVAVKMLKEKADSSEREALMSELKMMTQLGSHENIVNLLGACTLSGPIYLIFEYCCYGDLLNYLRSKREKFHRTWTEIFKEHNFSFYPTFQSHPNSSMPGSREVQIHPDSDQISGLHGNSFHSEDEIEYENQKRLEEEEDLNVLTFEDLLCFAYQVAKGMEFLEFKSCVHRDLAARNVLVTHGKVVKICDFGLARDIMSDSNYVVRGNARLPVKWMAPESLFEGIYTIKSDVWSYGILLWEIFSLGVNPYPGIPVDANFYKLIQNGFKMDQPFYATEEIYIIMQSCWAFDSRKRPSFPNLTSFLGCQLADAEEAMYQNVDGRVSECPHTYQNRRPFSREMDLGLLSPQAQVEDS

[18] = biological target: Tyrosine-protein kinase HCK (Homo sapiens) (UniProt P08631)
[19] = biological target: Tyrosine-protein kinase JAK1 (Homo sapiens) (UniProt P23458)
[20] = biological target: Mitogen-activated protein kinase kinase kinase kinase 4 (Homo sapiens) (UniProt O95819)
[21] = biological target: MAP/microtubule affinity-regulating kinase 3 (Homo sapiens) (UniProt P27448)
[22] = biological target: Dual specificity mitogen-activated protein kinase kinase 4 (Homo sapiens) (UniProt P45985)
[23] = biological target: Hepatocyte growth factor receptor (Homo sapiens) (UniProt P08581)
[24] = biological target: Myosin light chain kinase (Homo sapiens) (UniProt Q32MK0)
[25] = biological target: Mitogen-activated protein kinase kinase kinase 10 (Homo sapiens) (UniProt Q02779)
[26] = biological target: Serine/threonine-protein kinase MRCK beta (Homo sapiens) (UniProt Q9Y5S2)
[27] = biological target: Serine/threonine-protein kinase Nek4 (Homo sapiens) (UniProt P51957)
[28] = biological target: Mitogen-activated protein kinase kinase kinase 14 (Homo sapiens) (UniProt Q99558)
[29] = biological target: Serine/threonine-protein kinase PAK 2 (Homo sapiens) (UniProt Q13177)
Chain of Serine/threonine-protein kinase PAK 2 (Homo sapiens) (Q13177 whole entry): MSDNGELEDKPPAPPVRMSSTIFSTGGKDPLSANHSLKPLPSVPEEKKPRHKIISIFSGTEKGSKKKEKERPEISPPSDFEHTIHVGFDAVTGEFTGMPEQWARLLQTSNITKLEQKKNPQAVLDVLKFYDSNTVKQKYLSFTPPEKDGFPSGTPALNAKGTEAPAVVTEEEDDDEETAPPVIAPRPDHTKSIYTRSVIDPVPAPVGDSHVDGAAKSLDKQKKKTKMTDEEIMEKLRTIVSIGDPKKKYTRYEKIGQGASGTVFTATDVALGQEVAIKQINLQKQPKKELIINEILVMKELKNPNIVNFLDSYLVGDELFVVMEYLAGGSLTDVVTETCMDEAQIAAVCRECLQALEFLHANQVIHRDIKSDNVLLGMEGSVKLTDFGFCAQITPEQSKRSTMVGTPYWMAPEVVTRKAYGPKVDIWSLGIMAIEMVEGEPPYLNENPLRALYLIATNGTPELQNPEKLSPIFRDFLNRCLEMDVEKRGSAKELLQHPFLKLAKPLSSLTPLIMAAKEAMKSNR

[30] = biological target: Cyclin-dependent kinase 18 (Homo sapiens) (UniProt Q07002)
Chain of Cyclin-dependent kinase 18 (Homo sapiens) (Q07002 whole entry, the tested form may be a part): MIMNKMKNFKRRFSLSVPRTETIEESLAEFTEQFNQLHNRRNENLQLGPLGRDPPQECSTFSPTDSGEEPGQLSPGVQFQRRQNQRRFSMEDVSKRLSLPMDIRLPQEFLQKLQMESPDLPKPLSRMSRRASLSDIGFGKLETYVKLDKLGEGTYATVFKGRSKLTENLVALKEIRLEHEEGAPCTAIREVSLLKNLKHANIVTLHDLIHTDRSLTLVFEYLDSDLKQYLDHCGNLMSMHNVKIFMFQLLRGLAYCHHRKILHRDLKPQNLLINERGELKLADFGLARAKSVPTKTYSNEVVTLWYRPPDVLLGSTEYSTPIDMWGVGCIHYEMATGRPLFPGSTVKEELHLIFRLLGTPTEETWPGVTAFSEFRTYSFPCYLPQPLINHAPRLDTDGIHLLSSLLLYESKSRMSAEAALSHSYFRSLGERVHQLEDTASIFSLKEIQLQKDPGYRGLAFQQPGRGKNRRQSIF

[31] = biological target: Phosphatidylinositol 4-phosphate 3-kinase C2 domain-containing subunit beta (Homo sapiens) (UniProt O00750)
[32] = biological target: Phosphatidylinositol 3-kinase C2 domain-containing subunit gamma (Homo sapiens) (UniProt O75747)
[33] = biological target: Serine/threonine-protein kinase pim-3 (Homo sapiens) (UniProt Q86V86)
[34] = biological target: Serine/threonine-protein kinase PLK2 (Homo sapiens) (UniProt Q9NYY3)
[35] = biological target: Protein kinase C iota type (Homo sapiens) (UniProt P41743)
[36] = biological target: Proto-oncogene tyrosine-protein kinase ROS (Homo sapiens) (UniProt P08922)
[37] = biological target: Serine/threonine-protein kinase SBK1 (Homo sapiens) (UniProt Q52WX2)
[38] = biological target: SNF-related serine/threonine-protein kinase (Homo sapiens) (UniProt Q9NRH2)
[39] = biological target: Serine/threonine-protein kinase 16 (Homo sapiens) (UniProt O75716)
[40] = biological target: TGF-beta receptor type-2 (Homo sapiens) (UniProt P37173)
[41] = biological target: Non-receptor tyrosine-protein kinase TNK1 (Homo sapiens) (UniProt Q13470)
[42] = biological target: Testis-specific serine/threonine-protein kinase 1 (Homo sapiens) (UniProt Q9BXA7)
[43] = biological target: Tyrosine-protein kinase receptor TYRO3 (Homo sapiens) (UniProt Q06418)
[44] = biological target: Mitogen-activated protein kinase kinase kinase 20 (Homo sapiens) (UniProt Q9NYL2)
[45] = biological target: Histamine H3 receptor (Homo sapiens) (UniProt Q9Y5N1); conditions: Compound concentration 10.0 uM
[46] = Compound concentration 1000.0 nM
[47] = Compound concentration 100.0 nM

C[C@H](NC(=O)Nc1cc2[nH]ncc2c(CO)n1)c1ccccn1 [ERKi-NC]
inactive: residual activity [1, 46] 100% | residual activity [2, 46] 89.8% | residual activity [3, 46] 100% | residual activity [4, 46] 94.4% | residual activity [5, 46] 85.4% | residual activity [6, 46] 100% | residual activity [7, 46] 100% | residual activity [8, 46] 85.4% | residual activity [9, 46] 95.9% | residual activity [10, 46] 100% | residual activity [11, 46] 100% | residual activity [12, 46] 100% | residual activity [13, 46] 100% | residual activity [14, 46] 100% | residual activity [15, 46] 84.7% | residual activity [16, 46] 100% | residual activity [17, 46] 100% | residual activity [18, 46] 100% | residual activity [19, 46] 100% | residual activity [20, 46] 100% | residual activity [21, 46] 89.6% | residual activity [22, 46] 88.9% | residual activity [23, 46] 100% | residual activity [24, 46] 100% | residual activity [25, 46] 100% | residual activity [26, 46] 100% | residual activity [27, 46] 83.9% | residual activity [28, 46] 85% | residual activity [29, 46] 94.3% | residual activity [30, 46] 100% | residual activity [31, 46] 100% | residual activity [32, 46] 93.1% | residual activity [33, 46] 100% | residual activity [34, 46] 100% | residual activity [35, 46] 85.5% | residual activity [36, 46] 85% | residual activity [37, 46] 100% | residual activity [38, 46] 100% | residual activity [39, 46] 100% | residual activity [40, 46] 76.1% | residual activity [41, 46] 87.8% | residual activity [42, 46] 99% | residual activity [43, 46] 59.2% | residual activity [44, 46] 74.7% | inhibition [45] 21.1%

C[C@@H](NC(=O)Nc1cc2[nH]ncc2c(CO)n1)c1ccccc1 [ERKi]
inactive: residual activity [1, 47] 84% | residual activity [2, 47] 100% | residual activity [3, 47] 67.8% | residual activity [4, 47] 100% | residual activity [5, 47] 89.9% | residual activity [6, 47] 83.3% | residual activity [7, 47] 87.5% | residual activity [8, 47] 75.2% | residual activity [9, 47] 100% | residual activity [10, 47] 97.7% | residual activity [11, 47] 89.8% | residual activity [12, 47] 91.1% | residual activity [13, 47] 83.3% | residual activity [14, 47] 87.6% | residual activity [15, 47] 98.3% | residual activity [16, 47] 61.6% | residual activity [17, 47] 100% | residual activity [18, 47] 94.6% | residual activity [19, 47] 91.2% | residual activity [20, 47] 88.5% | residual activity [21, 47] 100% | residual activity [22, 47] 89.2% | residual activity [23, 47] 94.9% | residual activity [24, 47] 100% | residual activity [25, 47] 100% | residual activity [26, 47] 99.8% | residual activity [27, 47] 86.6% | residual activity [28, 47] 100% | residual activity [29, 47] 86.3% | residual activity [30, 47] 100% | residual activity [31, 47] 85.7% | residual activity [32, 47] 68.3% | residual activity [33, 47] 82.9% | residual activity [34, 47] 95.1% | residual activity [35, 47] 100% | residual activity [36, 47] 100% | residual activity [37, 47] 53.3% | residual activity [38, 47] 100% | residual activity [39, 47] 60.3% | residual activity [41, 47] 98.1% | residual activity [42, 47] 94.6% | residual activity [43, 47] 100% | residual activity [44, 47] 100% | inhibition [45] 7.46%
active: residual activity [40, 47] 40.8%
